Laboratory results taken from article PMC12165062, “High‐Throughput Fluorescence Screening Enables Globally Consistent Identification of ABA Signaling Modulators” (Advanced Science, 2025).
Read-outs that look alike come from different tables or passages of the source.

Tests used:
[1] = target: T1, PYR1 (Arabidopsis thaliana, UniProt O49686); assay: biochemical; design: Isothermal titration calorimetry of compound binding to PYR1; conditions: read-out: ITC/Kd/μM
T1 sequence (O49686 1-191): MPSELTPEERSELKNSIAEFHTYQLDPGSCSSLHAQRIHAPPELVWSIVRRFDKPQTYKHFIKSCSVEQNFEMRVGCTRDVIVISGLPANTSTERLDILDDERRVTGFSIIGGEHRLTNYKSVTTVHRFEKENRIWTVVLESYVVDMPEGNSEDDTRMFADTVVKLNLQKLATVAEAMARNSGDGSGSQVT
Procedure: (§1) To validate the practicality of GhitFluors platform for global high‐throughput identification of ABA receptor modulators, we used this platform to analyze a library comprising several hundreds‐amide compounds. First, we evaluated K d values of several hundreds amide‐compounds using fluorescence competition assays. […] Meanwhile, binding affinities of the six compounds to PYR1 were evaluated using ITC or BLI assays to validate the screening results. […] As depicted in Figure 4a, a significant decrease in fluorescence intensity was observed as the concentration of diopyridin increased, ranging from 30 to 350 µM. When the concentration of diopyridin reached 350 µM, fluorescence intensity was close to the threshold. […] In addition, we also tested the binding affinities of diopyridin with other representative PYLs, including dimer (PYL1, PYL2), and monomer (PYL4, PYL5, and PYL10‐PYL12) that had K d values ranging from 0.97 to 32.8 µM, and 1.6 to 243.7 µM, respectively (Figure S20, Supporting Information).

[2] = target: T1, PYR1; assay: biochemical; design: Fluorescence competition displacing lebactin (1 uM) from PYR1 (8 uM); Kd from double-log titration fit; conditions: 1 uM lebactin, 8 uM PYR1; read-out: F(GhitFluors)/Kd/μM
Excerpt: as §1, with “Validation of the Fluorescent Chemosensor‐Based Screening Platform In‐house Chemical Database Screening Assay To” for “To”

[3] = target: T1, PYR1; assay: biochemical; design: Bio-layer interferometry of compound binding to PYR1; conditions: read-out: BLI/Kd/μM
Procedure: To validate the practicality of GhitFluors platform for global high‐throughput identification of ABA receptor modulators, we used this platform to analyze a library comprising several hundreds‐amide compounds. First, we evaluated K d values of several hundreds amide‐compounds using fluorescence competition assays. […] Meanwhile, binding affinities of the six compounds to PYR1 were evaluated using ITC or BLI assays to validate the screening results. […] As depicted in Figure 4a, a significant decrease in fluorescence intensity was observed as the concentration of diopyridin increased, ranging from 30 to 350 µM. When the concentration of diopyridin reached 350 µM, fluorescence intensity was close to the threshold. […] It should have a low fluorescence background, high fluorescence shift and stability, and appropriate binding affinity, as these determine the accuracy, feasibility and, the sensitivity of this platform, respectively. […] First, we evaluated the fluorescence background of all chemosensors by using 310–370 nm as excitation wavelength. […] In addition, the binding affinity of compound 1a (lebactin) for PYR1 was evaluated by bio‐layer interferometry (BLI). […]

[4] = target: T2, PYR-HAB1 (PYR1 with HAB1) (Arabidopsis thaliana, UniProt O49686); assay: Ser/Thr phosphatase assay (Promega), HAB1 inhibition via PYR1; assay type: biochemical
T2 construct: HAB1 construct not described in main text; with Protein phosphatase 2C 16
T2 sequence (O49686 1-191): T1 sequence (O49686 1-191)
T2 sequence (Q9CAJ0 1-511 partner): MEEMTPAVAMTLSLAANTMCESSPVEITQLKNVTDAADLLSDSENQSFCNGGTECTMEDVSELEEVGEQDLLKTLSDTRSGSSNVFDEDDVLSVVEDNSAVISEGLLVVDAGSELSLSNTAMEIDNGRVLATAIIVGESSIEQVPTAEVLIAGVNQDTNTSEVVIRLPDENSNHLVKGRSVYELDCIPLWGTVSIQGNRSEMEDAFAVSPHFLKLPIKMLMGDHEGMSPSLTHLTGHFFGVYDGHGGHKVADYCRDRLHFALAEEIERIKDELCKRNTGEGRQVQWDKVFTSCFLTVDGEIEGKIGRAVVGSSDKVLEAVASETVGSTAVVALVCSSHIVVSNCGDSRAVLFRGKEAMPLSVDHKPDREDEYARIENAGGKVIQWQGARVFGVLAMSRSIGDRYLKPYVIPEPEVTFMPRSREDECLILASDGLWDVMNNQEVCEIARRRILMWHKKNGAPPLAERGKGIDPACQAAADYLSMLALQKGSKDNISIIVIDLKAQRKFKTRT

Structure (SMILES): CC(C)(C)c1ccc(S(=O)(=O)Nc2c([N+](=O)[O-])cc(Br)cc2[N+](=O)[O-])cc1 [145a, N-(4-bromo-2,6-dinitrophenyl)-4-(tert-butyl)benzenesulfonamide]
- Kd [1]: 171 ± 3.76 µM
- Kd [2]: 37.8 ± 1.31 µM

Structure (SMILES): COc1ccc(C(=O)Nc2cccc3c2C(=O)N(C2CCC(=O)NC2=O)C3=O)cc1OC (centres unmarked) [173b, N-(2(2,6-dioxopiperidin-3-yl)-1,3-dioxoisoindolin-4-yl)-3,4-dimethoxybenzamide]
- Kd [3]: 9.5 ± 0.75 µM
- Kd [2]: 1.55 ± 0.11 µM

Structure (SMILES): COc1ccc(C(=O)Nc2cccc3c2C(=O)N(C2CCC(=O)NC2=O)C3=O)cc1OC (centres unmarked) [173b, diopyridin]
- inhibition at 50 µM [4]: > 80%

Structure (SMILES): O=[N+]([O-])c1cc(Br)cc([N+](=O)[O-])c1NS(=O)(=O)c1cccc(F)c1 [260a, N-(4-bromo-2,6-dinitrophenyl)-3-fluorobenzenesulfonamide]
- Kd [1]: 7.59 ± 1.62 µM
- Kd [2]: 3.96 ± 0.4 µM

Structure (SMILES): O=[N+]([O-])c1cc(Br)cc([N+](=O)[O-])c1NS(=O)(=O)c1cccc(Cl)c1 [361a, N-(4-bromo-2,6-dinitrophenyl)-3-chlorobenzenesulfonamide]
- Kd [1]: 7.06 ± 1.92 µM
- Kd [2]: 8.25 ± 0.25 µM

Structure (SMILES): Cc1ccccc1S(=O)(=O)Nc1c([N+](=O)[O-])cc(Br)cc1[N+](=O)[O-] [368a, N-(4-bromo-2,6-dinitrophenyl)-2-methylbenzenesulfonamide]
- Kd [1]: 14.9 ± 3.29 µM
- Kd [2]: 4.73 ± 0.37 µM

Structure (SMILES): O=[N+]([O-])c1cc(Br)cc([N+](=O)[O-])c1NS(=O)(=O)c1ccccc1Cl [470a, N-(4-bromo-2,6-dinitrophenyl)-2-chlorobenzenesulfonamide]
- Kd [1]: 9.51 ± 2.19 µM
- Kd [2]: 8.43 ± 0.75 µM

Structure (SMILES): CC1=CC(=O)CC(C)(C)[C@@]1(O)/C=C/C(C)=C\C(=O)O [ABA]
- inhibition at 25 µM [4]: > 80%
